Measured values taken from patent US9163256B2, “Mutant receptors and their use in a nuclear receptor-based inducible gene expression system” (priority 2004, dated 2015).

Experiments:
CfEcR-DEF mutant A110P = CfEcR-DEF mutant A110P (Choristoneura fumiferana, UniProt O77255, A393P); test: cell-based; conditions: mutant A110P
Protocol: (§1) This construct was prepared in the same way as in switch 1.1 above except wild-type CfEcR-DEF was replaced with mutant CfEcR-DEF comprising a ligand binding domain comprising a substitution mutation selected from Table 1 below.
(§2) DNAs were transfected into mouse NIH3T3 cells (ATCC) as follows. Standard methods for culture and maintenance of the cells were followed. Cells were harvested and plated 96-well plates at 2,500 cells per well, in 50 μL of growth medium containing 10% fetal bovine serum (FBS). Twenty-four hours later, the cells were treated with 35 μL of serum-free growth medium containing either dimethylsulfoxide (DMSO; control) or a DMSO solution of ligand. The cells were then transfected using Superfect (Qiagen Inc.) transfection reagent. For each well, 0.625 μL of Superfect was mixed with 14.2 μL of serum-free growth medium. 0.16 μg of reporter construct and 0.04 μg of each receptor construct were added to the transfection reagent mix. The contents of the transfection mix were mixed in a vortex mixer and let stand at room temperature for 30 minutes. At the end of incubation, 15 μL of transfection mix was added to the cells. The cells were maintained at 37° C. and 5% CO2 for 48 hours in 5% FBS.
(§3) Reporter Assays: Cells were harvested 40 hours after adding ligands. 125 μL of passive lysis buffer (part of Dual-Luciferase reporter assay system from Promega Corporation) were added to each well of the […] plate. The plates were placed on a rotary shaker for 15 minutes. Twenty μL of lysate were assayed. Luciferase activity was measured using Dual-Luciferase reporter assay system from Promega Corporation following the manufacturer's instructions. Fold induction (FI) activities were calculated by dividing relative light units (“RLU”) in ligand treated cells with RLU in DMSO treated cells (untreated control).

CfEcR-DEF mutant F48L = CfEcR-DEF mutant F48L (Choristoneura fumiferana, UniProt O77255, F331L); test: cell-based; conditions: mutant F48L
Protocol: as §1, §2, §3

CfEcR-DEF mutant L234M = CfEcR-DEF mutant L234M (Choristoneura fumiferana, UniProt O77255, L517M); test: cell-based; conditions: mutant L234M
Protocol: as §1, §2, §3

CfEcR-DEF mutant M125R = CfEcR-DEF mutant M125R (Choristoneura fumiferana, UniProt O77255, M408R); test: cell-based; conditions: mutant M125R
Protocol: as §1, §2, §3

CfEcR-DEF mutant M92L = CfEcR-DEF mutant M92L (Choristoneura fumiferana, UniProt O77255, M375L); test: cell-based; conditions: mutant M92L
Protocol: as §1, §2, §3

CfEcR-DEF mutant T52E = CfEcR-DEF mutant T52E (Choristoneura fumiferana, UniProt O77255, T335E); test: cell-based; conditions: mutant T52E
Protocol: as §1, §2, §3

CfEcR-DEF mutant A110N = CfEcR-DEF mutant A110N (Choristoneura fumiferana, UniProt O77255, A393N); test: cell-based; conditions: mutant A110N
Protocol: as §1, §2, §3

CfEcR-DEF mutant F109M = CfEcR-DEF mutant F109M (Choristoneura fumiferana, UniProt O77255, F392M); test: cell-based; conditions: mutant F109M
Protocol: as §1, §2, §3

CfEcR-DEF mutant F48W = CfEcR-DEF mutant F48W (Choristoneura fumiferana, UniProt O77255, F331W); test: cell-based; conditions: mutant F48W
Protocol: as §1, §2, §3

CfEcR-DEF mutant F48Y = CfEcR-DEF mutant F48Y (Choristoneura fumiferana, UniProt O77255, F331Y); test: cell-based; conditions: mutant F48Y
Protocol: as §1, §2, §3

CfEcR-DEF mutant T52P = CfEcR-DEF mutant T52P (Choristoneura fumiferana, UniProt O77255, T335P); test: cell-based; conditions: mutant T52P
Protocol: as §1, §2, §3

CfEcR-DEF mutant V128F = CfEcR-DEF mutant V128F (Choristoneura fumiferana, UniProt O77255, V411F); test: cell-based; conditions: mutant V128F
Protocol: as §1, §2, §3

CfEcR-DEF mutant V96E = CfEcR-DEF mutant V96E (Choristoneura fumiferana, UniProt O77255, V379E); test: cell-based; conditions: mutant V96E
Protocol: as §1, §2, §3

CfEcR-DEF mutant W238E = CfEcR-DEF mutant W238E (Choristoneura fumiferana, UniProt O77255, W521E); test: cell-based; conditions: mutant W238E
Protocol: as §1, §2, §3

CfEcR-DEF mutant Y120M = CfEcR-DEF mutant Y120M (Choristoneura fumiferana, UniProt O77255, Y403M); test: cell-based; conditions: mutant Y120M
Protocol: as §1, §2, §3

[1] = target: CfEcR-DEF mutant V107I/Y127E/G (Choristoneura fumiferana, UniProt O77255, INS541G/V390I/Y410E); test: GAL4-driven luciferase reporter assay in NIH3T3 cells; assay type: cell-based; conditions: mutant V107I/Y127E/G
Protocol: as §1
The Gal-4-CfEcR-DEF(VYG) mutant was created by inserting an extra glycine at the C-terminal end of EcR substitution mutant V107I/Y127E [CfECR(VY)] by PCR. Essentially, this was done in two steps: PCR-amplification of CfEcR-DEF(VYG) and substitution of the CfEcR(VY) in the vector GAL4-CfEcR DEF(VY) pBIND 1-9 with the PCR-amplified CfEcR-DEF(VYG). The CfEcR-DEF region (with the extra glycine) was amplified by using the vector GAL4-CfEcR DEF(VY) pBIND 1-9 as template and the following PCR primers: […]
as §2, §3

CfEcR-DEF mutant L132M = CfEcR-DEF mutant L132M (Choristoneura fumiferana, UniProt O77255, L415M); test: cell-based; assay type: cell-based; conditions: mutant L132M
Protocol: as §1, §2, §3

[2] = relative to max fold induction of GS-E ligand

CfEcR-DEF mutant L132M, sequence (O77255 entry or part of it L415M): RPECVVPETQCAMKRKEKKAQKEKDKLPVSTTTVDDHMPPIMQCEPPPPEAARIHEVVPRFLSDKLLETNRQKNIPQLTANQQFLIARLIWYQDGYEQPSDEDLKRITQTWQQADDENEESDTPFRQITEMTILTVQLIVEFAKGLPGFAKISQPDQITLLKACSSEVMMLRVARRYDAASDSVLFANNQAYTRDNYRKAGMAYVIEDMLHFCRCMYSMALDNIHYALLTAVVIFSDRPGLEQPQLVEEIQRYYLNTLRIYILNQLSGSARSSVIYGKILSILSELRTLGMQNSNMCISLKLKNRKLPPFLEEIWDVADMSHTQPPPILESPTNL
CfEcR-DEF mutant L132M, sequence (P28702 298-449, further chain): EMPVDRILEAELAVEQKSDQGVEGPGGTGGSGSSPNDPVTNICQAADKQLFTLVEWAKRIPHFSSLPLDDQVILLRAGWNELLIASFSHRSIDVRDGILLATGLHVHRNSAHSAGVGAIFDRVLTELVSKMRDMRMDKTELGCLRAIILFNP
CfEcR-DEF mutant T52E, sequence (O77255 entry or part of it T335E): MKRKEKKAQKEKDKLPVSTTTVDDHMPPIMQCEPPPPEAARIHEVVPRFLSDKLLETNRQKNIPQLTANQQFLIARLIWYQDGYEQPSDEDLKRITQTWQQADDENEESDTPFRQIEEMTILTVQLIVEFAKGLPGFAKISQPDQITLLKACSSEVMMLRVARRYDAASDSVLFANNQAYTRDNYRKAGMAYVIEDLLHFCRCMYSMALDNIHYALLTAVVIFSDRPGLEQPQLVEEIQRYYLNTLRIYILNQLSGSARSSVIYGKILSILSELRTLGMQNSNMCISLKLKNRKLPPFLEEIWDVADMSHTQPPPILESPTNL
CfEcR-DEF mutant T52E, sequence (P28702 299-449, further chain): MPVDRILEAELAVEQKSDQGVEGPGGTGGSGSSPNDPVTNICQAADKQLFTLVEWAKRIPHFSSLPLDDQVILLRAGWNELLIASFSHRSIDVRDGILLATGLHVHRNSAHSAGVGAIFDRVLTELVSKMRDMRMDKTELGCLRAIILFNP
CfEcR-DEF mutant Y120M, sequence (O77255 entry or part of it Y403M): as the sequence (O77255 entry or part of it T335E) above, with E117T, Y185M counted along it
CfEcR-DEF mutant Y120M, sequence (P28702 299-449, further chain): as the sequence (P28702 299-449, further chain) above
CfEcR-DEF mutant F48L, sequence (P28702 299-449): as the sequence (P28702 299-449, further chain) above
CfEcR-DEF mutant F48L, sequence (O77255 entry or part of it F331L): as the sequence (O77255 entry or part of it T335E) above, with F113L, E117T counted along it
CfEcR-DEF mutant V128F, sequence (P28702 299-449): as the sequence (P28702 299-449, further chain) above
CfEcR-DEF mutant V128F, sequence (O77255 entry or part of it V411F): as the sequence (O77255 entry or part of it T335E) above, with E117T, V193F counted along it
CfEcR-DEF mutant M125R, sequence (P28702 299-449): as the sequence (P28702 299-449, further chain) above
CfEcR-DEF mutant M125R, sequence (O77255 entry or part of it M408R): as the sequence (O77255 entry or part of it T335E) above, with E117T, M190R counted along it
CfEcR-DEF mutant V107I/Y127E/G, sequence (P28702 299-449, stated change not applied): as the sequence (P28702 299-449, further chain) above
CfEcR-DEF mutant V107I/Y127E/G, sequence (O77255 entry or part of it V390I/Y410E/INS541G): as the sequence (O77255 entry or part of it T335E) above, with E117T counted along it
CfEcR-DEF mutant L234M, sequence (P28702 299-449): as the sequence (P28702 299-449, further chain) above
CfEcR-DEF mutant L234M, sequence (O77255 entry or part of it L517M): as the sequence (O77255 entry or part of it L415M) above, with M209L, L311M counted along it
CfEcR-DEF mutant W238E, sequence (P28702 299-449): as the sequence (P28702 299-449, further chain) above
CfEcR-DEF mutant W238E, sequence (O77255 entry or part of it W521E): as the sequence (O77255 entry or part of it T335E) above, with E117T, W303E counted along it
CfEcR-DEF mutant F48W, sequence (P28702 299-449): as the sequence (P28702 299-449, further chain) above
CfEcR-DEF mutant F48W, sequence (O77255 entry or part of it F331W): as the sequence (O77255 entry or part of it L415M) above, with F125W, M209L counted along it
CfEcR-DEF mutant A110N, sequence (O77255 entry or part of it A393N): as the sequence (O77255 entry or part of it L415M) above, with A187N, M209L counted along it
CfEcR-DEF mutant A110N, sequence (P28702 299-449, stated change not applied, further chain): as the sequence (P28702 299-449, further chain) above
CfEcR-DEF mutant F48Y, sequence (O77255 entry or part of it F331Y): as the sequence (O77255 entry or part of it L415M) above, with F125Y, M209L counted along it
CfEcR-DEF mutant F48Y, sequence (P28702 299-449, further chain): as the sequence (P28702 299-449, further chain) above
CfEcR-DEF mutant T52P, sequence (P28702 298-449): as the sequence (P28702 298-449, further chain) above
CfEcR-DEF mutant T52P, sequence (O77255 entry or part of it T335P): as the sequence (O77255 entry or part of it L415M) above, with T129P, M209L counted along it
CfEcR-DEF mutant F109M, sequence (O77255 entry or part of it F392M): as the sequence (O77255 entry or part of it L415M) above, with F186M, M209L counted along it
CfEcR-DEF mutant F109M, sequence (P28702 299-449, further chain): as the sequence (P28702 299-449, further chain) above
CfEcR-DEF mutant A110P, sequence (O77255 entry or part of it A393P): as the sequence (O77255 entry or part of it L415M) above, with A187P, M209L counted along it
CfEcR-DEF mutant A110P, sequence (P28702 299-449, stated change not applied, further chain): as the sequence (P28702 299-449, further chain) above
CfEcR-DEF mutant M92L, sequence (O77255 entry or part of it M375L): as the sequence (O77255 entry or part of it T335E) above, with E117T, M157L counted along it
CfEcR-DEF mutant M92L, sequence (P28702 299-449, further chain): as the sequence (P28702 299-449, further chain) above
CfEcR-DEF mutant V96E, sequence (O77255 entry or part of it V379E): as the sequence (O77255 entry or part of it T335E) above, with E117T, V161E counted along it
CfEcR-DEF mutant V96E, sequence (P28702 299-449, further chain): as the sequence (P28702 299-449, further chain) above

## CC(C)(O)CC[C@@H](O)[C@](C)(O)[C@H]1CC[C@@]2(O)C3=CC(=O)[C@@H]4C[C@@H](O)[C@@H](O)C[C@]4(C)[C@H]3CC[C@]12C [20E, 20-hydroxyecdysone]
CfEcR-DEF mutant A110P; read-out: EC50
  EC50: > 33 µM
CfEcR-DEF mutant A110P; [2]
  Rel Max FI: 0
CfEcR-DEF mutant F48L; read-out: EC50
  EC50: > 33 µM
CfEcR-DEF mutant F48L; [2]
  Rel Max FI: 0
CfEcR-DEF mutant L234M
  Rel Max FI: 0
CfEcR-DEF mutant L234M; read-out: EC50
  EC50: > 33 µM
CfEcR-DEF mutant M125R
  Rel Max FI: 0.01
CfEcR-DEF mutant M125R; read-out: EC50
  EC50: > 33 µM
CfEcR-DEF mutant M92L
  Rel Max FI: 0
CfEcR-DEF mutant M92L; read-out: EC50
  EC50: > 33 µM
CfEcR-DEF mutant T52E
  Rel Max FI: 0
CfEcR-DEF mutant T52E; read-out: EC50
  EC50: > 33 µM
CfEcR-DEF mutant A110N; read-out: EC50
  EC50: > 33 µM
CfEcR-DEF mutant A110N; [2]
  Rel Max FI: 0
CfEcR-DEF mutant F109M; read-out: EC50
  EC50: > 33 µM
CfEcR-DEF mutant F109M; [2]
  Rel Max FI: 0
CfEcR-DEF mutant F48W; read-out: EC50
  EC50: > 33 µM
CfEcR-DEF mutant F48W; [2]
  Rel Max FI: 0
CfEcR-DEF mutant F48Y; read-out: EC50
  EC50: > 33 µM
CfEcR-DEF mutant F48Y; [2]
  Rel Max FI: 0
CfEcR-DEF mutant T52P
  Rel Max FI: 0.02
CfEcR-DEF mutant T52P; read-out: EC50
  EC50: > 33 µM
CfEcR-DEF mutant V128F
  Rel Max FI: 0.02
CfEcR-DEF mutant V128F; read-out: EC50
  EC50: ~10 µM
CfEcR-DEF mutant V96E
  Rel Max FI: 0
CfEcR-DEF mutant V96E; read-out: EC50
  EC50: > 33 µM
CfEcR-DEF mutant W238E
  Rel Max FI: 0
CfEcR-DEF mutant W238E; read-out: EC50
  EC50: > 33 µM
CfEcR-DEF mutant Y120M
  Rel Max FI: 0
CfEcR-DEF mutant Y120M; read-out: EC50
  EC50: > 33 µM
[1]; read-out: EC50
  EC50: > 33 µM
[1]; [2]
  Rel Max FI: 0.03
CfEcR-DEF mutant L132M
  EC50: > 33 µM
  Rel Max FI: 0.01
CfEcR-DEF mutant L132M; [2]
  Rel Max FI: 0
